Laboratory results taken from the NIST ThermoML archive (doi:10.1021/acs.jced.5b00989).

Experiment: molar heat capacity at constant pressure; xn = mol fraction of the nth substance listed
Settings: 100 kPa, Liquid, Small sample (50 mg) DSC

C[P+](c1ccccc1)(c1ccccc1)c1ccccc1.[Br-] [methyltriphenylphosphonium bromide] + OCCO
x1 = 0.2
Settings | molar heat capacity at constant pressure [J/K/mol]
298.15 K | 237.6
300.65 K | 238.6
303.15 K | 239.4
305.65 K | 240.8
308.15 K | 241.6
310.65 K | 242.4
313.15 K | 243.4
315.65 K | 244.5
318.15 K | 245.2
320.65 K | 246.1
323.15 K | 247.2
325.65 K | 247.9
328.15 K | 248.9
330.65 K | 249.8
333.15 K | 250.8
335.65 K | 251.8
338.15 K | 252.7
340.65 K | 253.5
343.15 K | 254.3
345.65 K | 255
348.15 K | 255.5
350.65 K | 255
353.15 K | 256.7

CCCC[N+](CCCC)(CCCC)CCCC.[Cl-] [tetrabutylammonium chloride] + OCCOCCOCCO
x1 = 0.5
Settings | molar heat capacity at constant pressure [J/K/mol]
298.2 K | 445
300.7 K | 447.8
303.2 K | 448.9
305.7 K | 450.6
308.2 K | 452.3
310.7 K | 454.2
313.2 K | 456.1
315.7 K | 457.4
318.2 K | 458.7
320.7 K | 460.2
323.2 K | 461.9
325.7 K | 463
328.2 K | 464.5
330.7 K | 466.2
333.2 K | 467.7
335.7 K | 469.2
338.2 K | 471.1
340.7 K | 472.6
343.2 K | 473.7
345.7 K | 475.2
348.2 K | 475.6
350.7 K | 476
353.2 K | 479.7

C[P+](c1ccccc1)(c1ccccc1)c1ccccc1.[Br-] [methyltriphenylphosphonium bromide] + OCC(O)CO
x1 = 0.25
Settings | molar heat capacity at constant pressure [J/K/mol]
298.15 K | 328.5
300.65 K | 329.6
303.15 K | 330.5
305.65 K | 331.6
308.15 K | 332.7
310.65 K | 333.7
313.15 K | 334.8
315.65 K | 335.8
318.15 K | 336.5
320.65 K | 338.1
323.15 K | 339.4
325.65 K | 339.6
328.15 K | 340.8
330.65 K | 341.8
333.15 K | 342.6
335.65 K | 343.5
338.15 K | 344.6
340.65 K | 345.7
343.15 K | 346.7
345.65 K | 347.8
348.15 K | 347.9
350.65 K | 348.3
353.15 K | 350.2

O=C(O)CC(O)(CC(=O)O)C(=O)O [citric acid] + C[N+](C)(C)CCO.[Cl-]
x2 = 0.33
Settings | molar heat capacity at constant pressure [J/K/mol]
298.15 K | 422
300.65 K | 422.9
303.15 K | 424
305.65 K | 425.2
308.15 K | 426.1
310.65 K | 427.2
313.15 K | 428.7
315.65 K | 429.8
318.15 K | 430.6
320.65 K | 431.9
323.15 K | 433
325.65 K | 433.5
328.15 K | 435.4
330.65 K | 436.7
333.15 K | 437.5
335.65 K | 438.6
338.15 K | 439.7
340.65 K | 440.6
343.15 K | 442.1
345.65 K | 446.1
348.15 K | 447.2
350.65 K | 446.8
353.15 K | 449.4

CCCC[N+](CCCC)(CCCC)CCCC.[Cl-] [tetrabutylammonium chloride] + NC(N)=O
x1 = 0.8
Settings | molar heat capacity at constant pressure [J/K/mol]
308.2 K | 590
310.7 K | 593
313.2 K | 598
315.7 K | 601.2
318.2 K | 602.6
320.7 K | 600.6
323.2 K | 601.5
325.7 K | 602.9
328.2 K | 601.7
330.7 K | 603
333.2 K | 604.9
335.7 K | 605.1
338.2 K | 603.2
340.7 K | 604
343.2 K | 604.4
345.7 K | 605.2
348.2 K | 604.8
350.7 K | 605.4
353.2 K | 605.9

CCCC[N+](CCCC)(CCCC)CCCC.[Cl-] [tetrabutylammonium chloride] + OCCO
x1 = 0.25
Settings | molar heat capacity at constant pressure [J/K/mol]
298.2 K | 288.3
300.7 K | 289.6
303.2 K | 291
305.7 K | 292.2
308.2 K | 293.2
310.7 K | 294.5
313.2 K | 295.8
315.7 K | 296.8
318.2 K | 297.9
320.7 K | 299.5
323.2 K | 300.5
325.7 K | 301.2
328.2 K | 302.4
330.7 K | 303.5
333.2 K | 304.8
335.7 K | 305.9
338.2 K | 306.9
340.7 K | 307.7
343.2 K | 308.5
345.7 K | 309.1
348.2 K | 309.6
350.7 K | 310.6
353.2 K | 312.6

C[P+](c1ccccc1)(c1ccccc1)c1ccccc1.[Br-] [methyltriphenylphosphonium bromide] + O=C(O)CC(=O)O
x1 = 0.4
Settings | molar heat capacity at constant pressure [J/K/mol]
298.15 K | 336.9
300.65 K | 338
303.15 K | 339.2
305.65 K | 340
308.15 K | 341
310.65 K | 342.1
313.15 K | 343.1
315.65 K | 343.9
318.15 K | 345.2
320.65 K | 346
323.15 K | 346.6
325.65 K | 347.4
328.15 K | 348.4
330.65 K | 350.1
333.15 K | 350.3
335.65 K | 350.7
338.15 K | 351.3
340.65 K | 351.5
343.15 K | 351.9
345.65 K | 352.1
348.15 K | 352.5
350.65 K | 354
353.15 K | 354.2

C[N+](C)(C)CCO.[Cl-] [choline chloride] + Oc1ccccc1
x1 = 0.25
Settings | molar heat capacity at constant pressure [J/K/mol]
298.15 K | 219.3
300.65 K | 220.3
303.15 K | 221.2
305.65 K | 222.3
308.15 K | 223.3
310.65 K | 224.2
313.15 K | 225.1
315.65 K | 225.8
318.15 K | 226.6
320.65 K | 227.1
323.15 K | 227.9
325.65 K | 228.6
328.15 K | 229.3
330.65 K | 230.2
333.15 K | 231.1
335.65 K | 231.9
338.15 K | 232.6
340.65 K | 233.1
343.15 K | 233.5
345.65 K | 234.3
348.15 K | 234.5
350.65 K | 235
353.15 K | 236.8

O=C(O)CC(=O)O [propanedioic acid] + C[N+](C)(C)CCO.[Cl-]
x2 = 0.5
Settings | molar heat capacity at constant pressure [J/K/mol]
298.15 K | 226.9
300.65 K | 227.6
303.15 K | 228.3
305.65 K | 228.8
308.15 K | 229.4
310.65 K | 230.2
313.15 K | 230.6
315.65 K | 231.1
318.15 K | 231.7
320.65 K | 232.3
323.15 K | 232.7
325.65 K | 233.2
328.15 K | 233.8
330.65 K | 234.3
333.15 K | 234.9
335.65 K | 235.8
338.15 K | 237
340.65 K | 238
343.15 K | 238.4
345.65 K | 238.9
348.15 K | 239.5
350.65 K | 239.9
353.15 K | 240.8

O=C(O)C(=O)O [ethanedioic acid] + C[N+](C)(C)CCO.[Cl-]
x2 = 0.33
Settings | molar heat capacity at constant pressure [J/K/mol]
298.15 K | 270.8
300.65 K | 271.8
303.15 K | 272.1
305.65 K | 272.7
308.15 K | 273.6
310.65 K | 274.6
313.15 K | 275.4
315.65 K | 276.3
318.15 K | 276.8
320.65 K | 277
323.15 K | 277.1
325.65 K | 277.4
328.15 K | 277.8
330.65 K | 278.3
333.15 K | 278.7
335.65 K | 279.6
338.15 K | 280
340.65 K | 280.6
343.15 K | 281.2
345.65 K | 281.7
348.15 K | 281.9
350.65 K | 282.2
353.15 K | 282.9
